US20230011571A1, “SMALL MOLECULE FURIN INHIBITORS FOR TREATING INFECTIOUS DISEASES” (BP Asset V, Inc., priority 2019, published 2023)

Assays:
Format in all cases: cell-based
[1] = tested on: Chikungunya virus (CHIKV); assay: microbe, parasite or virus in culture; conditions: Chikungunya virus, Vero, 48 h, read-out: Percent viral inhibition CHKV
dengue virus (DENV) = assay: microbe, parasite or virus in culture; conditions: Dengue virus, Vero, 120 h, read-out: Percent viral inhibition DENY
Marburg virus (MARV) = assay: organism not typed; conditions: Vero, 72 h, read-out: Percent viral inhibition MARV

Compound	inhibition at 1 µM [1] [%]	inhibition at 1 µM (dengue virus (DENV)) [%]	inhibition at 1 µM (Marburg virus (MARV)) [%]
CC(=O)NCC1CCN(Cc2cc(Oc3ccc(N4CCN(CCC(=O)O)CC4)nc3)nc(-c3cc(F)cc(Br)c3)c2)CC1 [Example 116]	10.4	6.7	4.3
CN1CCN(c2ncc(Oc3cc(CN4CCC(CC(=O)O)CC4)cc(-c4cc(Cl)cc(Cl)c4)c3)cn2)CC1 [Example 117, 2-(1-((3′,5′-dichloro-5-((2-(4-methylpiperazin-1-yl)pyrimidin-5-yl)oxy)-[1,1′-biphenyl]-3-yl)methyl)piperidin-4-yl)acetic acid]	18	28.6	43.6
CC(=O)NCC1CCN(Cc2cc(Oc3cnc(N4CCCNCC4)nc3)nc(-c3cc(Cl)cc(Cl)c3)c2)CC1 [Example 118, N-((1-((2-((2-(1,4-diazepan-1-yl)pyrimidin-5-yl)oxy)-6-(3,5-dichlorophenyl)pyridin-4-yl)methyl)piperidin-4-yl)methyl)acetamide]	0	15.6	0
O=C(O)COC1CCN(Cc2cc(Oc3cnc(N4CCNCC4)nc3)nc(-c3cc(Cl)cc(Cl)c3)c2)CC1 [Example 122, 2-((1-((2-(3,5-dichlorophenyl)-6-((2-(piperazin-1-yl)pyrimidin-5-yl)oxy)pyridin-4-yl)methyl)piperidin-4-yl)oxy)acetic acid]	35.5	33.7	23.6
O=C(O)CC1CCN(Cc2cc(Oc3cnc(N4CCNCC(O)C4)nc3)nc(-c3cc(Cl)cc(Cl)c3)c2)CC1 (stereo not drawn) [Example 123, 2-(1-((2-(3,5-dichlorophenyl)-6-((2-(6-hydroxy-1,4-diazepan-1-yl)pyrimidin-5-yl)oxy)pyridin-4-yl)methyl)piperidin-4-yl)acetic acid]	19.2	39.9	50.6
NC1(CCO)CCN(c2ncc(Oc3cc(CN4CCC(CC(=O)O)CC4)cc(-c4cc(Cl)cc(Cl)c4)n3)cn2)CC1 [Example 124, 2-(1-((2-((2-(4-amino-4-(2-hydroxyethyl)piperidin-1-yl)pyrimidin-5-yl)oxy)-6-(3,5-dichlorophenyl)pyridin-4-yl)methyl)piperidin-4-yl) acetic acid]	21.2	1.28	63.8
CN1CCCN(c2ncc(Oc3cc(CN4CCC(CC(=O)O)CC4)cc(-c4cc(Cl)cc(Cl)c4)n3)cn2)CC1 [Example 126, 2-(1-((2-(3,5-dichlorophenyl)-6-((2-(4-methyl-1,4-diazepan-1-yl)pyrimidin-5-yl)oxy)pyridin-4-yl)methyl)piperidin-4-yl)acetic acid]	23.6	8.34	38.5
CC(CC(=O)O)C1CN(Cc2cc(Oc3cnc(N4CCN(C)CC4)nc3)nc(-c3cc(Cl)cc(Cl)c3)c2)C1 (stereo not drawn) [Example 127, 3-(1-((2-(3,5-dichlorophenyl)-6-((2-(4-methylpiperazin-1-yl)pyrimidin-5-yl)oxy)pyridin-4-yl)methyl)azetidin-3-yl)butanoic acid]	26	0	52.1
CN1CCN(c2ncc(Oc3cc(CN4CCC(OCC(=O)O)C4)cc(-c4cc(Cl)cc(Cl)c4)n3)cn2)CC1 (stereo not drawn) [Example 128, 2-((1-((2-(3,5-dichlorophenyl)-6-((2-(4-methylpiperazin-1-yl)pyrimidin-5-yl)oxy)pyridin-4-yl)methyl)pyrrolidin-3-yl)oxy)acetic acid]	3.67	7.97	51.4
CN1CCN(c2ncc(Oc3cc(CN4CC5CC(CC(=O)O)CC5C4)cc(-c4cc(Cl)cc(Cl)c4)n3)cn2)CC1 (stereo not drawn) [Example 129, 2-(2-((2-(3,5-dichlorophenyl)-6-((2-(4-methylpiperazin-1-yl)pyrimidin-5-yl)oxy)pyridin-4-yl)methyl)octahydrocyclopenta[c]pyrrol-5-yl)acetic acid]	23.6	38.5	29.8
CN1CCN(c2ncc(Oc3cc(CN4CCC(CCC(=O)O)CC4)cc(-c4cc(Cl)cc(Cl)c4)n3)cn2)CC1 [Example 130, 3-(1-((2-(3,5-dichlorophenyl)-6-((2-(4-methylpiperazin-1-yl)pyrimidin-5-yl)oxy)pyridin-4-yl)methyl)piperidin-4-yl)propanoic acid]	28.4	33	33.3
CC(CC1CCN(Cc2cc(Oc3cnc(N4CCN(C)CC4)nc3)nc(-c3cc(Cl)cc(Cl)c3)c2)CC1)C(=O)O (stereo not drawn) [Example 131, 3-(1-((2-(3,5-dichlorophenyl)-6-((2-(4-methylpiperazin-1-yl)pyrimidin-5-yl)oxy)pyridin-4-yl)methyl)piperidin-4-yl)-2-methylpropanoic acid]	3.11	20.7	52.4
O=C(O)CC1CCN(Cc2cc(Oc3cnc(N4CCCNCC4)nc3)nc(-c3cc(Cl)cc(Cl)c3)c2)CC1 [Example 132, 2-(1-((2-((2-(1,4-diazepan-1-yl)pyrimidin-5-yl)oxy)-6-(3,5-dichlorophenyl)pyridin-4-yl)methyl)piperidin-4-yl) acetic acid]	35.2	32.8	46.8
CN1CC2CN(c3ncc(Oc4cc(CN5CCC(CC(=O)O)CC5)cc(-c5cc(Cl)cc(Cl)c5)n4)cn3)CC2C1 (stereo not drawn) [Example 133, 2-(1-((2-(3,5-dichlorophenyl)-6-((2-(5-methylhexahydropyrrolo[3,4-c]pyrrol-2(1H)-yl)pyrimidin-5-yl)oxy)pyridin-4-yl)methyl)piperidin-4-yl)acetic acid]	43.4	47.8	54
C[C@@H](CC1CCN(Cc2cc(Oc3cnc(N4CCN(C)CC4)nc3)nc(-c3cc(Cl)cc(Cl)c3)c2)CC1)C(=O)O [Example 134, (S)-3-(1-((2-(3,5-dichlorophenyl)-6-((2-(4-methylpiperazin-1-yl)pyrimidin-5-yl)oxy)pyridin-4-yl)methyl)piperidin-4-yl)-2-methylpropanoic acid]	0	43.2	45.1
CN1CCN(c2ncc(Oc3cc(CN4CCC5(CC4)CN(C(=O)CO)C5)cc(-c4cc(Cl)cc(Cl)c4)n3)cn2)CC1 [Example 135, 1-(7-((2-(3,5-dichlorophenyl)-6-((2-(4-methylpiperazin-1-yl)pyrimidin-5-yl)oxy)pyridin-4-yl)methyl)-2,7-diazaspiro[3.5]nonan-2-yl)-2-hydroxyethanone]	12.8	56.2	51.3
CN1CCN(c2ccc(Oc3cc(CN4CC[C@@H]5[C@H](CC4)[C@H]5C(=O)O)cc(-c4cc(Cl)cc(Cl)c4)n3)cn2)CC1 [Example 136, (1R,7S,8r)-4-((2-(3,5-dichlorophenyl)-6-((6-(4-methylpiperazin-1-yl)pyridin-3-yl)oxy)pyridin-4-yl)methyl)-4-azabicyclo[5.1.0]octane-8-carboxylic acid]	39.8	18	57.8
CC(O)CC1CCN(Cc2cc(Oc3cnc(N4CCN(C)CC4)nc3)nc(-c3cc(Cl)cc(Cl)c3)c2)CC1 (stereo not drawn) [Example 138, 1-(1-((2-(3,5-dichlorophenyl)-6-((2-(4-methylpiperazin-1-yl)pyrimidin-5-yl)oxy)pyridin-4-yl)methyl)piperidin-4-yl)propan-2-ol]	21.7	54.9	32.4
CN1CCCN(c2ncc(Oc3cc(CN4CCC(OCC(=O)O)CC4)cc(-c4cc(Cl)cc(Cl)c4)n3)cn2)CC1 [Example 140, 2-((1-((2-(3,5-dichlorophenyl)-6-((2-(4-methyl-1,4-diazepan-1-yl)pyrimidin-5-yl)oxy)pyridin-4-yl)methyl)piperidin-4-yl)oxy)acetic acid]	32.7	14.1	51.5
CN1CCN(c2ccc(Oc3cc(CN4CCC5(CC4)CNC(=O)OC5)cc(-c4cc(Cl)cc(Cl)c4)n3)cn2)CC1 [Example 141, 9-((2-(3,5-dichlorophenyl)-6-((6-(4-methylpiperazin-1-yl)pyridin-3-yl)oxy)pyridin-4-yl)methyl)-2-oxa-4,9-diazaspiro[5.5]undecan-3-one]	20.9	27.7	66.6
CN1CCN(c2ncc(Oc3cc(CN4CCC(CC(N)=O)CC4)cc(-c4cc(Cl)cc(Cl)c4)n3)cn2)CC1 [Example 142, 2-(1-((2-(3,5-dichlorophenyl)-6-((2-(4-methylpiperazin-1-yl)pyrimidin-5-yl)oxy)pyridin-4-yl)methyl)piperidin-4-yl)acetamide]	15.4	51.5	49.1
CN1CCN(c2ncc(Oc3cc(CN4CCC(OC5(C(=O)O)CC5)CC4)cc(-c4cc(Cl)cc(Cl)c4)n3)cn2)CC1 [Example 143, 1-((1-((2-(3,5-dichlorophenyl)-6-((2-(4-methylpiperazin-1-yl)pyrimidin-5-yl)oxy)pyridin-4-yl)methyl)piperidin-4-yl)oxy)cyclopropanecarboxylic acid]	34.4	34.5	40.5
COC1CN(C)CCN(c2ncc(Oc3cc(CN4CCC(CC(=O)O)CC4)cc(-c4cc(Cl)cc(Cl)c4)n3)cn2)C1 (stereo not drawn) [Example 144, 2-(1-((2-(3,5-dichlorophenyl)-6-((2-(6-methoxy-4-methyl-1,4-diazepan-1-yl)pyrimidin-5-yl)oxy)pyridin-4-yl)methyl)piperidin-4-yl)acetic acid]	32.6	35	56.6
CN1CCN(c2ncc(Oc3cc(CN4CCC(CC(=O)O)CC4)cc(-c4cc(Cl)cc(Cl)c4)n3)cn2)CC(C)(O)C1 (stereo not drawn) [Example 146, 2-(1-((2-(3,5-dichlorophenyl)-6-((2-(6-hydroxy-4,6-dimethyl-1,4-diazepan-1-yl)pyrimidin-5-yl)oxy)pyridin-4-yl)methyl)piperidin-4-yl)acetic acid]	23.1	41.8	66.2
